Reference: patent publication US20090186814A1, “Methods and Compositions for Reducing Ischemia-Derived Microvascular Damage” (priority 2005, published 2009)
Where two headings read alike, the source gives them in different places. Ends that are not written are not given here. Peptide text beside a SMILES is read from it. * marks the point of attachment. Cbz = O=C(OCc1ccccc1)*; CH2F = FC*

Tests used:
caspase-3 [1] = conditions: myocardium; cited from earlier work
mouse hearts = test: Ex vivo model of global ischemia and reperfusion injury, Langendorff-perfused mouse hearts (WT and δV1-1 transgenic)
Method: Transgenic mice (TG) that selectively express δV1-1 in myocytes were created using α- myosin heavy chain promoter. Hah, H. S., et al., Circ. Res. 91:741-748 (2002). Hemodynamic and morphometric parameters in these transgenic mice, as measured by echocardiographic measurements in vivo, were not different from those measured in wild type mice (WT). Inagaki, K., et al., Circulation 108:869-875 (2003). Mice were heparinized (4000U/kg IP) and anesthetized with sodium pentobarbital (200mg/kg IP). Hearts were perfused with an oxygenated Krebs-Henseleit buffer at 37° C. in a Langendorff system as previously described in Inagaki, K., et al., Circulation 108:869-875 (2003). Hearts were subjected to a 30-minute global ischemia and a 120-minute full reperfusion. The coronary flow rate was kept constant at 3 mL/minute (0.04L/min/g; initial coronary perfusion pressure: WT 67.4±5.1, WT+δV1-1 61.0±4.6, TG 62.6±3.9, TG+δV1-1 64.6±5.4 mmHg; PENS, n=5 for each group; FIG. 1) using an adjustable-speed rotary pump during the experiment to provide 60-80 mmHg of initial coronary perfusion pressure (CPP) as previously reported in Webster, K. A., et al., J. Clin. Invest. 104:239-252 (1999). CPP was measured through a sidearm in the Langendorff system. Coronary vascular resistance (CVR) was defined as CPP divided by coronary flow rate. Hearts were perfused with Tat-conjugated δV1-1 [50 nmol/L; Tat-conjugated δV1-1 described in Chen, L. et al., Proc. Natl. Acad. Sci. U.S.A. 98:11114-11119 (2001)] or vehicle (control) during the first 20 minutes of reperfusion (n=5 for each group). Coronary perfusion effluent was collected to determine creatine phosphokinase (CPK) release.
(§1) At the end of the reperfusion, 1 -mm-thick transverse sections of mouse hearts were incubated in triphenyltetrazolium chloride solution (TTC) (1% in phosphate buffer, pH 7.4) at 37° C. for 15 minutes as described in Inagaki, K. et al., Circulation 108:869-875 (2003) to determine the viable myocardium. One cm-thick transverse segments of the hearts were stained with TTC. Infarct size was expressed as a percentage of the total area at risk. Immunohistochemistry was performed on cardiac tissue two hours after reperfusion in murine hearts (n=5 for each group) as described in Vakeva, A. P., et al., Circulation 97:2259-2267 (1998). Hearts were immediately frozen in Optimal Cutting Temperature (OCT) Compound, and 5-μm-thick cryosections were obtained. Sections were fixed with 4% formaldehyde, blocked with 1 % normal donkey serum and incubated with mouse monoclonal anti-(x-actinin antibody (Sigma-Aldrich) or goat anti-PECAM-1 antibody (Santa Cruz Biochemicals) to distinguish between endothelial cells and myocytes. Secondary antibody treatments were carried out using goat anti-mouse IgG antibody conjugated with FITC or donkey anti-goat lgG antibody conjugated with FITC (Molecular Probe). Terminal deoxynucleotidyl transferase-mediated dUTP nick-end labeling (TUNEL) staining was performed for detection of apoptotic cells (Roche) and nuclei were counterstained with 4, 6-diamidino-2-phenylindole (DAPI; Sigma-Aldrich). Tissue samples from the non-ischemic area were used as negative control. TUNEL-positive nuclei were counted in a total of 1,500 myocytes and 500 of endothelial cells over several random fields.
Data are expressed as mean±SEM. Two-way ANOVA for repeated measures was used for time-course of cardiac function and vascular function, 1-way factorial ANOVA with Fisher's test for multiple comparisons, and unpaired or paired student's t-test for difference between 2 groups. P<0.05 was considered statistically significant.

adult rat cardiomyocytes = conditions: cited from earlier work
Yorkshire swine = format: in vivo, pig; parameters: key to CFR(Cx) / CFR(LAD): hyperemic average peak velocity ÷ baseline average peak velocity; conditions: for CFR(LAD): adenosine hyperemia; for CFR(Cx): unaffected left circumflex artery
Method: Yorkshire swine (30-45kg) were maintained during the every procedure under anesthesia by inhaled isoflurane (1-2%). A bolus of 300 IU/kg heparin was administered intravenously through the sheath (6 French) placed in the carotid artery. A 10 mm, over-the-wire angioplasty balloon was placed in the left anterior descending artery (LAD) proximal to the first diagonal branch. The balloon was inflated to occlude the LAD for 30 minutes. At the last 1 minute of a 30-minute ischemia, Tat-conjugated δV1-1 (250 ng/kg) or saline was infused at 1 mL/minute for 1 minute through the guide-wire lumen of the balloon catheter (n=9 for each group). Left ventriculogram (LVG) was obtained (40° left anterior oblique projection, 30 frames/sec) to measure cardiac function at 5 time points; before ischemia (baseline), 30 minutes, 24 hours, 5 days, and 10 days after ischemia (n=9 for each group). Ejection fraction (EF) and hypokinetic area were calculated using the software (Plus Plus, Sanders Data System, Calif.) with elimination of frames after premature ventricular contraction beats. Blood pressure and heart rate were measured just before LVG measurements at each time point through the water-filled catheter (Table 1). Coronary flow was measured by a 0.014″ Doppler-tipped guide wire (Flowire, JOMED Inc.) in the LAD, and the unaffected, left circumflex artery (LCx). The wire tip was placed 2 cm distal from the balloon-occluded site in the LAD. After stable baseline flow velocity was recorded, adenosine [endothelium-independent vasodilator; 48 μg; Suryapranata, H., et al., Circulation 89:1109-1117 (1994)] was infused intracoronarily to induce hyperemia (a transient increase in coronary blood flow through microvascular vasodilation) at 5 time points: before ischemia (baseline), 30 minutes, 24 hours, 5 days, and 10 days after ischemia (n=9 for each group). Bradykinin [endothelium-dependent vaodilator, 0.2ml of a 3×10^−6M in saline; Rodriguez-Sinovas, A., et al., J. Appl. Physiol. 95:81-88 (2003)] was also infused intracoronary before ischemia and 24 hours after reperfusion (n=6 for each group). Coronary flow reserve was calculated by dividing the average peak velocity (APV) at hyperemic phase by the baseline APV as described in Suryapranata, H., et al., Circulation 89:1109-1117 (1994). After reperfusion, to determine the area at risk in porcine hearts, LAD ligation was performed at the balloon-occluded site and Evan's Blue (0.0025%) was perfused as previously described in Inagaki, K., et al., Circulation 2304-2307 (2003). All other methods were performed as described in Example 1.

[2] = system: endothelial cells and myocytes of porcine hearts; test: TUNEL staining and electron microscopy of porcine cardiac tissue 4 hours after reperfusion; format: in vivo, pig
Method: as §1
Immunohistochemistry was performed on cardiac tissue as described in Example 1 with the exception that immunohisotchemistry was performed 4 hours after reperfusion in porcine hearts (n=3 for each group).
Electron microscopy study was performed on porcine cardiac tissue 4 hours after reperfusion (n=3 for each group). Samples taken from the mid-myocardium were fixed (FIG. 3A) and prepared as previously reported in Gottlieb, R. A., et al., J. Clin Invest. 94:1621-1628 (1994). Ultra-thin sections were stained with uranyl acetate lead citrate and examined with the H300 (Hitachi) electron microscopy. All other methods were as previously described in Examples 1 and 2.

caspase-3 [3] = conditions: cited from earlier work
rat myocardium = conditions: in vivo rat myocardium; cited from earlier work
rabbit femoral arteries = conditions: in vivo rabbit femoral arteries; cited from earlier work
[4] = further δV1-1 infusion to the transgenic hearts
[5] = transgenic mouse hearts, exogenous δV1-1
[6] = wild type hearts, exogenous δV1-1
[7] = wild type hearts, δV1-1 delivered through coronary arteries, 50 nmol/L, first 20 minutes of reperfusion
[8] = LAD, Baseline (before ischemia)
[9] = electron microscopy, 4 hours after reperfusion
[10] = electron microscopy, 4 hours after reperfusion, listed as δV1-
[11] = four hours after reperfusion, TUNEL, n=3

δV1-1: δPKC inhibitor peptide, SEQ ID NO:1 (SFNSYELGSL), amino acids 8-17 of rat δPKC; used Tat-conjugated in the examples (also: Tat conjugate in examples; listed as Rattus norvegicus)
reperfusion-induced caspase-3 activity (caspase-3 [1]): reduced
coronary vascular resistance (CVR) during reperfusion (mouse hearts; further treatment of transgenic mouse hearts): significantly minimized the rise of CVR
CPK release (mouse hearts; [4]): unaffected
infarct size (mouse hearts; [4]): unaffected
TUNEL-positive myocytes (mouse hearts; [5]): without any further effect
decrease of TUNEL-positive endothelial cells (mouse hearts; [5]): 80%
reduction of number of TUNEL positive endothelial cells (mouse hearts; [6]): 80%
reduction of number of TUNEL positive myocytes (mouse hearts; [6]): 80%
decrease in CPK release (mouse hearts; [7]): about 70%
decrease in infarct size (mouse hearts; [7]): about 70%
hyperglycemia-induced apoptosis (adult rat cardiomyocytes): inhibits
free radical formation (adult rat cardiomyocytes; hyperglycemia): inhibits
CFR(LAD) (Yorkshire swine; 30 min R): 2.00 ± 0.20
coronary flow reserve in LAD following bradykinin infusion (Yorkshire swine; 24 hours after reperfusion, n=6): did not decrease
CFR(LAD) (Yorkshire swine; 24 hr R): 2.50 ± 0.24
CFR(LAD) (Yorkshire swine; 5 days R): 2.68 ± 0.21
CFR(LAD) (Yorkshire swine; 10 days R): 2.67 ± 0.27
ejection fraction (Yorkshire swine; 10 days after ischemia, n=9): 69.9±1.6%
hypokinetic area (Yorkshire swine; 10 days after ischemia, n=9): 4.7±2.0%
CFR(LAD) (Yorkshire swine; Baseline (before ischemia)): 2.52 ± 0.16
b-APV (baseline average peak flow velocity) (Yorkshire swine; Cx, 30 min R): 20.3 ± 3 cm/s
h-APV (hyperemia average peak flow velocity) (Yorkshire swine; Cx, 30 min R): 37 ± 3 cm/s
b-APV (baseline average peak flow velocity) (Yorkshire swine; Cx, 24 hr R): 15 ± 2 cm/s
h-APV (hyperemia average peak flow velocity) (Yorkshire swine; Cx, 24 hr R): 30 ± 4 cm/s
b-APV (baseline average peak flow velocity) (Yorkshire swine; Cx, 5 days R): 25 ± 5 cm/s
h-APV (hyperemia average peak flow velocity) (Yorkshire swine; Cx, 5 days R): 55 ± 10 cm/s
b-APV (baseline average peak flow velocity) (Yorkshire swine; Cx, 10 days R): 25 ± 3 cm/s
h-APV (hyperemia average peak flow velocity) (Yorkshire swine; Cx, 10 days R): 55 ± 5 cm/s
b-APV (baseline average peak flow velocity) (Yorkshire swine; Cx, Baseline (before ischemia)): 24 ± 2 cm/s
h-APV (hyperemia average peak flow velocity) (Yorkshire swine; Cx, Baseline (before ischemia)): 61 ± 3 cm/s
b-APV (baseline average peak flow velocity) (Yorkshire swine; LAD, 30 min R): 27 ± 4 cm/s
h-APV (hyperemia average peak flow velocity) (Yorkshire swine; LAD, 30 min R): 49 ± 4 cm/s
b-APV (baseline average peak flow velocity) (Yorkshire swine; LAD, 24 hr R): 18 ± 1 cm/s
h-APV (hyperemia average peak flow velocity) (Yorkshire swine; LAD, 24 hr R): 46 ± 6 cm/s
b-APV (baseline average peak flow velocity) (Yorkshire swine; LAD, 5 days R): 24 ± 3 cm/s
h-APV (hyperemia average peak flow velocity) (Yorkshire swine; LAD, 5 days R): 67 ± 9 cm/s
b-APV (baseline average peak flow velocity) (Yorkshire swine; LAD, 10 days R): 25 ± 4 cm/s
h-APV (hyperemia average peak flow velocity) (Yorkshire swine; LAD, 10 days R): 57 ± 6 cm/s
b-APV (baseline average peak flow velocity) (Yorkshire swine; [8]): 24 ± 3 cm/s
h-APV (hyperemia average peak flow velocity) (Yorkshire swine; [8]): 58 ± 7 cm/s
resting APV and coronary flow reserve in left circumflex artery (LCx, control artery) (Yorkshire swine; all time points): remained normal
infarct size (Yorkshire swine; intracoronary treatment at the time of reperfusion, 10 days after ischemia, n=9): 4.4±1.1%
blood pressure, heart rate or vessel diameter vs. control group (Yorkshire swine; pig, in vivo): no significant differences
CFR(Cx) (Yorkshire swine; 30 min R): 1.73 ± 0.21
CFR(Cx) (Yorkshire swine; 24 hr R): 1.96 ± 0.04
CFR(Cx) (Yorkshire swine; 5 days R): 2.01 ± 0.14
CFR(Cx) (Yorkshire swine; 10 days R): 2.46 ± 0.20
CFR(Cx) (Yorkshire swine; Baseline (before ischemia)): 2.44 ± 0.10
time until coronary flow reserve (adenosine, LAD) was normalized (Yorkshire swine; δV1-1-treated pigs): ≤ 24 h
coronary flow reserve following adenosine infusion in LAD after reperfusion (Yorkshire swine; δV1-1-treated pigs, 250 ng/kg intracoronary at last 1 minute of ischemia): minor decrease
endothelial cell swelling [2, 9]: minimal swelling
microvasculature lumen [2, 9]: patent
myocyte damage (contraction bands, swollen mitochondria) [2, 9]: no such pathological changes were observed
obstruction of capillaries by red and white blood cells [2, 9]: rarely seen
endothelial cell swelling [2, 10]: slight endothelial swelling
myocyte damage (contraction bands, swollen mitochondria) [2, 10]: neither contraction bands nor swollen mitochondria
decrease of apoptosis in endothelial cells [2, 11]: about 70%
decrease of apoptosis in myocytes [2, 11]: about 70%

CC(=O)c1c(O)c(C)c(O)c(Cc2c(O)c3c(c(C(=O)/C=C/c4ccccc4)c2O)OC(C)(C)C=C3)c1O [rottlerin]
caspase-3 activity (caspase-3 [3]): attenuated

COC(=O)C[C@H](NC(=O)[C@H](C)NC(=O)[C@@H](NC(=O)OCc1ccccc1)C(C)C)C(=O)CF [ZVADfmk] (Cbz-Val-Ala-Asp(OMe)-CH2F)
reperfusion injury (rat myocardium): reduces reperfusion injury
staurosporin-induced endothelial apoptosis (rabbit femoral arteries): reduces
